Measured values taken from patent publication US20100119620A1, “SUPPRESSING MICROBIAL GROWTH IN PULP AND PAPER” (priority 2006, published 2010).

What was measured:
[1] = system: bacteria native to the process water sample; assay: Bacterial density in paper process water (coated groundwood mill, pH 7.9) dosed with halogen, with re-challenge; type: cell-based
Method: The unstabilized bleach solution was 3% as Cl2 in water. To prepare the stabilized chlorine solution we blended 5.0 mL NaOCl (3% as Cl2 in water) with 5.0 mL of an aqueous solution of urea and sodium hydroxide (0.5M urea in 5% NaOH). We then blended 5.0 mL NaOCl (3% as Cl2 in water) with 5.0 mL of an aqueous solution of urea and sodium hydroxide (0.25M urea in 5% NaOH). This yielded a 2:1 molar ratio of chlorine to urea.
Paper process water was collected from a mill in the Northeastern US producing coated groundwood printing and writing grades (pH 7.9). Samples were dosed with halogen and plated after one and four hours. Following the four-hour sampling, process water was challenged with 1% (volume/volume) of untreated process water and samples were plated again after 24 hours.

[2] = Halogen residuals (total and free) measured using DPD reagent after blending NaOCl with urea/NaOH; type: physicochemical
Method: We blended 5.0 mL NaOCl (3% as Cl2 in water) with 5.0 mL of an aqueous solution of urea and sodium hydroxide (0.5M urea in 5% NaOH). To achieve a 2:1 molar ratio of chlorine to urea we blended 5.0 mL NaOCl (3% as Cl2 in water) with 5.0 mL of an aqueous solution of urea and sodium hydroxide (0.25M urea in 5% NaOH). Halogen residuals were measured using DPD reagent, and were recorded 3 minutes after mixing with the reagent.
Because of the higher yield, less halogen is required to achieve the desired anti-microbial effect under these test conditions. […] The advantages of increased yield and improved anti-microbial activity are shown in Example 2.

[3] = system: Sphaerotilus natans (ATCC 1529); assay: Mean Biocidal Concentration for 100% kill of filamentous test isolate in buffered water (pH 7.2); type: cell-based
Method: Two biocide solutions were evaluated and included NaOCl and NaOCl mixed with urea at a 1:1 molar ratio. The unstabilized NaOCl solution was 3% as Cl2 in water. To prepare the stabilized chlorine solution we blended 5.0 mL NaOCl (3% as Cl2 in water) with 5.0 mL of an aqueous solution of urea and sodium hydroxide (0.5M urea in 5% NaOH). In the case of the stabilized chlorine the NaOCl and urea were mixed prior to introduction to buffered water (pH 7.2) inoculated with approximately 1×10^5 bacterial filaments/mL of the filamentous test isolate. The filamentous test isolate used in this evaluation was Sphaerotilus natans (ATCC 1529). The Mean Biocidal Concentration was identified as the test chlorine concentration in ppm of total chlorine (Cl2) required for 100% kill of the filamentous test isolate.

[4] = pH after mixing 9.8, recorded 3 minutes after mixing with DPD reagent

Question: With `[Na+].[O-]Cl` [NaOC1, sodium hypochlorite] as the compound, how does the “Bacterial Density” value ([1]; 2.5 ppm Total C12, contact time 1 hour) read?
Answer: Its value is 2 log 10 CFU/mL.

Question: And the “Bacterial Density” value ([1]; 2.5 ppm Total C12, contact time 4 hours)?
Answer: Its value is 3.5 log 10 CFU/mL.

Question: And the “Bacterial Density” value ([1]; 2.5 ppm Total C12, contact time 24 hours, after challenge with 1% (v/v) untreated process water at 4 hours)?
Answer: The value was 7.4 log 10 CFU/mL.

Question: What about the “Bacterial Density” value ([1]; 10 ppm Total C12, contact time 1 hour) of the same compound?
Answer: The value was 2 log 10 CFU/mL.

Question: And the “Bacterial Density” value ([1]; 10 ppm Total C12, contact time 4 hours)?
Answer: Its value is 2 log 10 CFU/mL.

Question: And the “Bacterial Density” value ([1]; 10 ppm Total C12, contact time 24 hours, after challenge with 1% (v/v) untreated process water at 4 hours)?
Answer: The value was 7.3 log 10 CFU/mL.

Question: What about the “Free Halogen (% Yield)” value [2, 4] of the same compound?
Answer: Its value is 100 % Yield.

Question: And the “Total Halogen (% Yield)” value [2, 4]?
Answer: Its value is 100 % Yield.

Question: What about the “Free Halogen (% Yield)” value ([2]; pH after mixing 13.0) of the same compound?
Answer: The value was 100 % Yield.

Question: What about the “Total Halogen (% Yield)” value ([2]; pH after mixing 13.0) of the same compound?
Answer: The value was 100 % Yield.

Question: What about the “Free Halogen (% Yield)” value ([2]; pH after mixing 13.5) of the same compound?
Answer: The value was 100 % Yield.

Question: And the “Total Halogen (% Yield)” value ([2]; pH after mixing 13.5)?
Answer: Its value is 100 % Yield.

Question: And the “Mean Biocidal Concentration S. natans” value ([3]; contact time 0.5 hours)?
Answer: Its value is 5 ppm Total C12.

Question: And the “Mean Biocidal Concentration S. natans” value ([3]; contact time 1 hour)?
Answer: The value was 5 ppm Total C12.

Question: What about the “Mean Biocidal Concentration S. natans” value ([3]; contact time 3.5 hours) of the same compound?
Answer: The value was 5 ppm Total C12.

Question: And the “Mean Biocidal Concentration S. natans” value ([3]; contact time 9 hours)?
Answer: The value was 5 ppm Total C12.
